{"source": "patent US20220079993A1", "about": "“NON-NATURALLY OCCURRING THERMOGENIC ADIPOCYTES, METHODS OF MAKING, AND METHODS OF USE THEREOF” (University of Georgia Research Foundation, Inc., priority 2019, published 2022)", "format_in_all_cases": "cell-based, human", "key": {"beige adipocytes": {"tested_on": "beige adipocytes", "test": "High-throughput primary screen, lipolysis assay (glycerol release), 384-well", "conditions": "20 μM, 24 hours of drug treatment, vs untreated beige adipocytes", "method": "ADSCs were seeded at 5000 cell/cm^2 in 12-well plates, grown for 5 days and then induced to differentiate into GC for 20 days. […] Cells were treated with forskolin (20 μM) for indicated time periods and supernatant samples were collected. Lipolysis assay was performed with free glycerol reagent (Sigma, F6428-40ML), according to manufacturer instructions.\nADSCs were plated in 384-well plates at a density of 5000 cell/cm2 and grown to confluency over ˜4 days. Cells were then differentiated to beige adipocytes using B-8 medium for 21 days. All cell culture and incubations in the 384-well format were done at 37° C. and 5% CO2. […] The use of FDA-approved drugs may allow for re-purposing for therapeutic use.\nLipolysis assays were performed after 24 hours of drug treatment by measuring free glycerol released in the 384-well format, using the procedure described above. Absorbance for each compound was normalized to untreated control samples for each plate and calculated as a percent of the control. Cut-offs for “activating” and “inhibiting” compounds were set at 2-fold. Validation assays were performed for select compounds at a range of concentration doses."}, "GC": {"tested_on": "GC", "test": "Lipolysis assay (free glycerol) after forskolin", "method": "ADSCs were seeded at 5000 cell/cm^2 in 12-well plates, grown for 5 days and then induced to differentiate into GC for 20 days. Prior to the assay, cells were washed in DPBS twice and then incubated with DMEM with 2% fatty-acid free BSA (Santa Crus, sc-500949) and Triascin C (5 μM). Cells were treated with forskolin (20 μM) for indicated time periods and supernatant samples were collected. Lipolysis assay was performed with free glycerol reagent (Sigma, F6428-40ML), according to manufacturer instructions."}, "UCP1": {"tested_on": "UCP1", "test": "qRT-PCR of UCP1 transcript in beige adipocytes -/+ forskolin", "conditions": "beige adipocytes stimulated with FSK (20 uM)", "method": "(§1) FIG. 2A is a bar graph showing RNA expression levels by qRT-PCR for indicated genes (UCP1, DIO2) for adipose derived stem cells (ADSCs), GlucoCytes (GC), or GC with forskolin (FSK, 20 uM). FIG. 2B is a bar graph showing quantitation of immunostaining data (UCP1) from 6 independent fields of view. FIGS. 2C and 2D are bar graphs showing qRT-PCR of UCP1 of GC induced from an additional line purchased from ThermoFisher (2C) and an immortalized ADSC line purchased from ATCC (ASC52-telo) (2D). Transcript levels were determined by qRT-PCR. n=3 for each independent replicate. Data are mean+/−standard deviation. *P<0.0.05, **P<0.01, ***P<0.005. […] Cell lysates were collected at indicated days and RNA was isolated and analyzed by qRT-PCR for marker expression. […] Each line was differentiated for 21 days to beige adipocytes using B-8 medium and transcript levels of UCP1 (2Q), PPARGC1 (2R), IRF4 (2S), and ADIPOQ (2T) were measured by Taqman qRT-PCR for indicated genes +/−FSK for 6 hours (20 μM).\n(§2) Cells were washed with DPBS, lysed directly on the plate and used for RNA isolation with the E.Z.N.A Total RNA Kit (Omega, R6834-02) according to manufacturer instructions. RNA quantitation was performed with the Biotek Synergy 2 plate reader and cDNA was synthesized using 1 ug of RNA with the iScript cDNA Synthesis Kit (Bio-Rad, 1708841). […]"}, "DIO2": {"tested_on": "DIO2", "test": "qRT-PCR of DIO2 transcript in beige adipocytes -/+ forskolin", "conditions": "beige adipocytes stimulated with FSK (20 uM)", "method": "as §1, §2"}}}
{"molecule": "C=C[C@@]1(C)CC(=O)[C@]2(O)[C@@]3(C)[C@@H](O)CCC(C)(C)[C@@H]3[C@H](O)[C@H](OC(C)=O)[C@@]2(C)O1", "note": "[Forskolin]", "values": [{"measurement": "% Control (relative levels of glycerol release)", "setting": "beige adipocytes", "result": 262.31, "unit": "% control"}, {"measurement": "Increase in free glycerol in the media", "setting": "GC; 4 hours of FSK (20 μM)", "result": "~2", "unit": "fold"}, {"measurement": "Increase in free glycerol in the media", "setting": "GC; 8 hours of FSK (20 μM)", "result": "~5", "unit": "fold"}, {"measurement": "UCP1 transcript level compared to ADSCs", "setting": "UCP1", "result": 520, "unit": "fold"}, {"measurement": "DIO2 transcript level compared to ADSCs", "setting": "DIO2", "result": 130, "unit": "fold"}]}
